Assay results from article PMC3726002 (Bioorganic & medicinal chemistry letters, 2011).
pIC50: −log10 of the molar value.

What was measured:
α9α10 nAChRs = α9α10 nAChRs (Rattus norvegicus, UniProt P43144+Q9JLB5); type: cell-based; conditions: for selectivity for the α9α10 subtype vs. the α7 subtype: ratio of α7 to α9α10 IC50; for inhibition of α9α10 ACh-gated currents at the probe concentration: 100 nM probe concentration, result in words
[1] = cited from earlier work
[2] = phase 2; cited from earlier work
[3] = cited from earlier work; for tolerance to the antihyperalgesic effect: rat, repeated dosing (7 days)
[4] = rat CCI pain model as printed; cited from earlier work
[5] = rat; cited from earlier work
α7 nAChR = α7 nAChR (Rattus norvegicus, UniProt Q05941); type: cell-based
GABAA receptors = assay: Interaction with GABAA receptors; conditions: unpublished data
GABAB receptors = GABAB receptors (Homo sapiens, UniProt O75899+Q9UBS5); assay: Interaction with GABAB receptors; conditions: unpublished data
5HT3 receptors = target: T1, 5HT3 receptors (Homo sapiens, UniProt P46098); assay: Affinity for 5HT3 receptors; type: binding; conditions: unpublished data
T1 sequence (P46098 24-478): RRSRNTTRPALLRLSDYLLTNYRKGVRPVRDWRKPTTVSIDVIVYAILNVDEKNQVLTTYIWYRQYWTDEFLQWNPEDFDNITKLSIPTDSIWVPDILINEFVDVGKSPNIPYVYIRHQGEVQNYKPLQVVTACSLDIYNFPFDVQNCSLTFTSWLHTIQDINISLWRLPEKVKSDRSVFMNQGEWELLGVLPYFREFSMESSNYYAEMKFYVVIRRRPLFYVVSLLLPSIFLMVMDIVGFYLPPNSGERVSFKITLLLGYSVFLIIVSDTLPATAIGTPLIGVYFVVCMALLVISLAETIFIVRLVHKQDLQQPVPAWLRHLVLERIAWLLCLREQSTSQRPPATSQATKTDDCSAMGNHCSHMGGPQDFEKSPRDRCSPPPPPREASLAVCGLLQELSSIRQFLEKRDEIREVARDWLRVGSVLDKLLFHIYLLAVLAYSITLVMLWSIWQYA

κ-opioid receptors = κ-opioid receptors (Homo sapiens, UniProt P41145); assay: Affinity for κ-opioid receptors; type: binding; conditions: unpublished data
Sequence of κ-opioid receptors (P41145 whole entry): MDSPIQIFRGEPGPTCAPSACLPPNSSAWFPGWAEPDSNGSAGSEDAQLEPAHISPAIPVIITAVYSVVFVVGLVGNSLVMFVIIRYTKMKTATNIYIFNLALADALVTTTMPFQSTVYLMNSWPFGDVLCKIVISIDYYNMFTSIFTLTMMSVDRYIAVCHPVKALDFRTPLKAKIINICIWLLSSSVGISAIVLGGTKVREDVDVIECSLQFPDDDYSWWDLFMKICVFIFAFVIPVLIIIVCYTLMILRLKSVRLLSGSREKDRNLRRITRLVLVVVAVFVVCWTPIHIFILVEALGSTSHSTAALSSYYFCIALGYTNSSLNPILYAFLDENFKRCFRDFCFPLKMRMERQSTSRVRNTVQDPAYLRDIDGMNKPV

Sequence of α9α10 nAChRs (P43144 26-479): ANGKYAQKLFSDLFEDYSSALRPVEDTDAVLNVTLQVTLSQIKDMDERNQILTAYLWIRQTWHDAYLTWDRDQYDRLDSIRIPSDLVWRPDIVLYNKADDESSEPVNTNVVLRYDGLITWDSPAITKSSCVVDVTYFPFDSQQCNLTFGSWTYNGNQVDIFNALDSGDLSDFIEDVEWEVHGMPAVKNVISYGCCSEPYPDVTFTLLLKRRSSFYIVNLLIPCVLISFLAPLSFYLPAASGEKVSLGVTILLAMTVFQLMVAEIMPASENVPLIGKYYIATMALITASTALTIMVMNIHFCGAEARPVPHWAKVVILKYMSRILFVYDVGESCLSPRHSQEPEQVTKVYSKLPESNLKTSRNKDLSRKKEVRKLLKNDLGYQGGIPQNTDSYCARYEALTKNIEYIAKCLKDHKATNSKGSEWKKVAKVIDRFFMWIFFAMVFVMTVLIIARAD
Sequence of α9α10 nAChRs (Q9JLB5 25-447): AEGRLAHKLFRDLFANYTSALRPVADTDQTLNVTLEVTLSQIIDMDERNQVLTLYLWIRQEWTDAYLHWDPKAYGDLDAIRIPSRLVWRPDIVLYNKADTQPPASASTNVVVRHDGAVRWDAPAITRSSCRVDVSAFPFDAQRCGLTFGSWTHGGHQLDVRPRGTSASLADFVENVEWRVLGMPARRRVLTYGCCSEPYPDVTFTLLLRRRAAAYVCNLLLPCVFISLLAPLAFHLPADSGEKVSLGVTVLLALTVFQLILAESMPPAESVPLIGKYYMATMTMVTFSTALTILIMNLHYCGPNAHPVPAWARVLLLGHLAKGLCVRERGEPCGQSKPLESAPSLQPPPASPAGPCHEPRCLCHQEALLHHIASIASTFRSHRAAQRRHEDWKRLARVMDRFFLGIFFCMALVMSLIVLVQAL
Sequence of α7 nAChR (Q05941 23-502): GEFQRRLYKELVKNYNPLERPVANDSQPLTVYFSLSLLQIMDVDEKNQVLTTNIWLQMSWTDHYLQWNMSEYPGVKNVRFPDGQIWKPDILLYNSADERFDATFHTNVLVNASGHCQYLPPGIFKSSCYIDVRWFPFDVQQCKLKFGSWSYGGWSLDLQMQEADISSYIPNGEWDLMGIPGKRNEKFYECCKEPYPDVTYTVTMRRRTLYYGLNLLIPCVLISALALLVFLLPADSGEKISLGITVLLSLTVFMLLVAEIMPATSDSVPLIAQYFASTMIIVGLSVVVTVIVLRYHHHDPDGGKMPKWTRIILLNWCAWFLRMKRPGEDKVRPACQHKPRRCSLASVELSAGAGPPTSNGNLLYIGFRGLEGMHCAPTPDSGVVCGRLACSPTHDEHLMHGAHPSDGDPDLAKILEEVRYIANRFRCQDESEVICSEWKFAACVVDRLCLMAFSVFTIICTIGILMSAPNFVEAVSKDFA
Sequence of GABAB receptors (Q9UBS5 15-961 limits assumed): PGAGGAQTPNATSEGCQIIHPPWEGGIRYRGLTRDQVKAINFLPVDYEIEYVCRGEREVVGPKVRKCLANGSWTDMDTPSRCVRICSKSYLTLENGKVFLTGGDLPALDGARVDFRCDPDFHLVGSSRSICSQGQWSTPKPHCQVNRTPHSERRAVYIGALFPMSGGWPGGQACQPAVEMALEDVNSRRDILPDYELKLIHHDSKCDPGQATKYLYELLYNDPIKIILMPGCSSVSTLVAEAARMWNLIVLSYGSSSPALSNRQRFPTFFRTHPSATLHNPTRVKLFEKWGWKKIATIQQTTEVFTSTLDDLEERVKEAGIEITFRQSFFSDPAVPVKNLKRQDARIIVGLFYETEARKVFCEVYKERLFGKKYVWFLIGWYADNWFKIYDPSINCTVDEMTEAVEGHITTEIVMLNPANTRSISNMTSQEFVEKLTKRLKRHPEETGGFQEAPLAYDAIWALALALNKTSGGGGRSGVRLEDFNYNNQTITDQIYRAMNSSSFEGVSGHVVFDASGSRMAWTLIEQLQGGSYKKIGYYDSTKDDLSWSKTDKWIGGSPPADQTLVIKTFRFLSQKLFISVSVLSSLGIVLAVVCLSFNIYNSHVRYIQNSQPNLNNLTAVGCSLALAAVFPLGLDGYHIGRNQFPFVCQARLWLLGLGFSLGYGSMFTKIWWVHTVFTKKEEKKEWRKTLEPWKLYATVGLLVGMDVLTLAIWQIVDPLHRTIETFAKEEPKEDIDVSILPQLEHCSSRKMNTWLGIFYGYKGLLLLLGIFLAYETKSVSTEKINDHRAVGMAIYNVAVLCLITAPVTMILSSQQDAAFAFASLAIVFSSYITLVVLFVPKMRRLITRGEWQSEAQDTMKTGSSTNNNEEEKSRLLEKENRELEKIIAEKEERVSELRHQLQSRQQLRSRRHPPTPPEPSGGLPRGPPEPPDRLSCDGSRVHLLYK
Sequence of GABAB receptors (O75899 42-941): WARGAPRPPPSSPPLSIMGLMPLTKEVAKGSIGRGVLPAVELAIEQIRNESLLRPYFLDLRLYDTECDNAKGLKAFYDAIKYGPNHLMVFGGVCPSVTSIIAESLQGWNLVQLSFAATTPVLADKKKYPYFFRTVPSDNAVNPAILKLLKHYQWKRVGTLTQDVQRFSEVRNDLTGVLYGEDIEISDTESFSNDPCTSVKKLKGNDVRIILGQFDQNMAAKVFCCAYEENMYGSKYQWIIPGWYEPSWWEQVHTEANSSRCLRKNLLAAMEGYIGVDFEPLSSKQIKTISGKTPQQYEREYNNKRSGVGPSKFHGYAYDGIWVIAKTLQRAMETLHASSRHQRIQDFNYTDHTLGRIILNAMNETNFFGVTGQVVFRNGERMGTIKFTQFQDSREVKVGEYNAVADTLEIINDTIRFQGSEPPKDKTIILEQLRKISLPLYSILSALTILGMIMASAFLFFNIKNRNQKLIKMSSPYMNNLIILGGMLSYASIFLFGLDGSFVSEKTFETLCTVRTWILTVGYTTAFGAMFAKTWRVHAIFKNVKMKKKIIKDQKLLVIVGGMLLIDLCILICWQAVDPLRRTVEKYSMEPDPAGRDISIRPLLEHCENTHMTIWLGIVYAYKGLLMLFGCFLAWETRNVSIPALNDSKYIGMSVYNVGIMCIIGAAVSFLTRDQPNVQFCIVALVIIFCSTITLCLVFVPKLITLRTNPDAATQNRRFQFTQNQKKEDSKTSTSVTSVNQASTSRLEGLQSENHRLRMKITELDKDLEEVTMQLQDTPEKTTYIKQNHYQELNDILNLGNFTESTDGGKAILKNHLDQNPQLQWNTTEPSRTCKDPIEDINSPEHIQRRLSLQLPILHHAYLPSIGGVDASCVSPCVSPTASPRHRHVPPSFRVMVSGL

SMILES	analgesic effect in the rat tail-flick test [1]	analgesic effect in the rat formalin model [2]	effect on mechanical hyperalgesia in the rat CCI model [3]	tolerance to the antihyperalgesic effect [3]	efficacious doses versus doses producing toxicity in the rotarod test [5]	pIC50 (α9α10 nAChRs)	pIC50 (α7 nAChR)	inhibition of α9α10 ACh-gated currents at the probe concentration (α9α10 nAChRs)	other results
Cc1cc[n+](CC#Cc2ccc(-c3ccc(C#CC[n+]4ccc(C)c(C)c4)cc3)cc2)cc1C.[Br-].[Br-] [Compound 7a]	ineffective	demonstrated an analgesic effect	reversed mechanical hyperalgesia in a dose-related manner	not observed	efficacy was achieved at doses well below those that produced toxicity				selectivity for the α9α10 subtype vs. the α7 subtype (α9α10 nAChRs): 75 fold; alleviation of vincristin-induced neuropathic pain [4]: effective
Cc1cc[n+](CCCc2ccc(-c3ccc(CCC[n+]4ccc(C)c(C)c4)cc3)cc2)cc1C.[Br-].[Br-] [Compound 8a]						6.17	5.22		selectivity for the α9α10 subtype vs. the α7 subtype (α9α10 nAChRs): 9 fold
C(#Cc1cc(C#CCCC[n+]2cccc(-c3ccccc3)c2)cc(C#CCCC[n+]2cccc(-c3ccccc3)c2)c1)CCC[n+]1cccc(-c2ccccc2)c1 [Compound 9e]						8.77	6.73		
[Br-].[Br-].[Br-].c1ccc2c(c1)ccc[n+]2CCCCCc1cc(CCCCC[n+]2cccc3ccccc32)cc(CCCCC[n+]2cccc3ccccc32)c1 [Compound 10c]	ineffective	demonstrated an analgesic effect	reversed mechanical hyperalgesia in a dose-related manner	not observed	efficacy was achieved at doses well below those that produced toxicity	8.38	5.82		
c1ccc2c[n+](CCCCCc3cc(CCCCC[n+]4ccc5ccccc5c4)cc(CCCCC[n+]4ccc5ccccc5c4)c3)ccc2c1 [Compound 10d]						8.32	6.77		
c1ccc(-c2ccc[n+](CCCCCc3cc(CCCCC[n+]4cccc(-c5ccccc5)c4)cc(CCCCC[n+]4cccc(-c5ccccc5)c4)c3)c2)cc1 [Compound 10e]						8.43	7.04		
Cc1cc(C)c[n+](CCCC#Cc2cc(C#CCCC[n+]3cc(C)cc(C)c3)c(C#CCCC[n+]3cc(C)cc(C)c3)cc2C#CCCC[n+]2cc(C)cc(C)c2)c1.[Br-].[Br-].[Br-].[Br-] [Compound 11b]								nearly complete inhibition	
C(#Cc1cc(C#CCCC[n+]2cccc(-c3ccccc3)c2)c(C#CCCC[n+]2cccc(-c3ccccc3)c2)cc1C#CCCC[n+]1cccc(-c2ccccc2)c1)CCC[n+]1cccc(-c2ccccc2)c1.[Br-].[Br-].[Br-].[Br-] [Compound 11e]	ineffective	demonstrated an analgesic effect	reversed mechanical hyperalgesia in a dose-related manner	not observed	efficacy was achieved at doses well below those that produced toxicity	9.25	8.06	nearly complete inhibition	interaction with GABAA receptors (GABAA receptors): does not interact; interaction with GABAB receptors (GABAB receptors): does not interact; affinity for 5HT3 receptors compared to α9α10 nAChRs (5HT3 receptors): several orders of magnitude lower affinity; affinity for κ-opioid receptors compared to α9α10 nAChRs (κ-opioid receptors): several orders of magnitude lower affinity
Cc1cc(C)c[n+](CCCCCc2cc(CCCCC[n+]3cc(C)cc(C)c3)c(CCCCC[n+]3cc(C)cc(C)c3)cc2CCCCC[n+]2cc(C)cc(C)c2)c1.[Br-].[Br-].[Br-].[Br-] [Compound 12b]								nearly complete inhibition	
